Results taken from US10130598B2, “Methods and compositions for administration of 3-halopyruvate and related compounds for the treatment of cancer” (The Johns Hopkins University, priority 2008, dated 2018).

Experiments:
VX2 tumor = assay: Oral administration of 3-BrPA in the VX2 liver tumor rabbit model; format: in vivo, New Zealand White rabbits
Experimental: New Zealand White rabbits were used in the study. All rabbits, carriers and recipients, were anesthetized with a mixture of acepromazine (2.5 mg/kg; Phoenix, St. Joseph, Mo.) and ketamine hydrochloride (44 mg/kg; Phoenix) administered intramuscularly. The VX2 tumor cell suspension was first injected into the hind legs of carrier rabbits and grown for 2 weeks. Resultant tumors were harvested from each carrier and a tumor suspension was prepared from each harvested tumor by dissection of viable tumor tissue and aseptic mincing.
For the rabbits that were going to receive the VX2 tumor implanted in the liver, intravenous access was gained via a marginal ear vein and 0.1-0.2 ml (2.5-5 mg) of sodium pentobarbital (Abbott Laboratories, Abbott Park, Ill.) was given periodically to maintain anesthesia. The abdomen of each recipient rabbit was shaved and disinfected with ethanol and povidine iodine. The liver of the rabbit was exposed by a midline incision, then an aliquot of the tumor cell suspension (0.2 ml) was injected directly using a 21-gauge angiocatheter into the left lobe of the liver in order to develop a solitary lesion with adequate surrounding liver parenchyma. The abdomen was closed in two layers. The tumor was allowed to grow in the rabbit livers for 7 days. Pain and distress levels were assessed by daily by monitoring food intake, feces and urine production and finally checking for signs of guarding or reluctance to move when touched.
Oral administration of 3-BrPA dissolved in PBS was examined using the VX2 tumor model, an animal model for hepatocellular carcinoma (described above). VX2 tumors were allowed to grow the livers of 12 New Zealand White rabbits for 10 days. Tumor bearing rabbits were divided in 4 groups. Group 1 (n=3) received 5 mg of 3-BrPA in 2.75 ml of Phosphate Buffered Saline (PBS) orally once a day, group 2 (n=3) received 10 mg of 3-BrPA in 2.75 ml of PBS orally once a day, group 3 (n=3) received 50 mg of 3-BrPA in 2.75 ml of PBS orally once a day and group 4 (control, n=3) received no treatment. Median survival for the animals in group 1 (n=3), receiving 5 mg of 3-BrPA in 2.75 ml of PBS, was 66 days. Animals in group 2 (n=3), receiving 10 mg of 3-BrPA in 2.75 ml of PBS, survived for 70 days. All the animals in group 3 (n=3), receiving 50 mg of 3-BrPA in 2.75 ml of PBS expired within 24 hours of oral administration of the first dose.
To test whether buffering 3-BrPA with NaHCO3 would allow oral administration of a higher dose of 3-BrPA, the maximum tolerated dose of orally administered 3-BrPA dissolved in NaHCO3 was determined. As in Example 1, the VX2 tumor model was used, with VX2 tumors grown in the livers of 12 New Zealand White rabbits for 10 days. Once again, the tumor bearing rabbits were divided in 4 groups. […] All animals in group 3 (n=3) expired within 24 hours after receiving 1000 mg of 3-BrPA in 2.75 ml of NaHCO3 orally.
The effect of pH on the survival of rabbits bearing VX2 liver tumors that were treated with the MTD of 3-BrPA buffered with NaHCO3 was examined. The VX2 tumor model was once again used, as described above. A total of 20 New Zealand White rabbits were included in the study. All rabbits received VX2 tumor implantation as described above. The tumor was allowed to grow in the rabbit livers for 7 days. Rabbits were divided in 4 groups. Group 1 (n=6) received 500 mg of 3-BrPA in 2.75 ml of NaHCO3 (1 M, resulting in pH 4), group 2 (n=2) received 500 mg of 3-BrPA in 2.75 ml of PBS (resulting in pH<2), group 3 (n=6) received 500 mg of 3-BrPA in 2.75 ml of NaHCO3 (2 M, resulting in pH 7) and group 4 (n=6) received no treatment (control group). All drugs were administered orally once a day.

[1] = system: Hep3B, HepG2, SK-Hep1 and VX2 cells; assay: Annexin V apoptosis assay (flow cytometry and fluorescent microscopy); format: cell-based
Experimental: The apoptosis of 3-BrPA treated cells was evaluated using Annexin V staining and the formation of active caspase-3. Cells treated with 3-BrPA were stained with anti-Annexin V and analyzed by flow cytometry as well as fluorescent microscopy. Flow cytometry was performed using a Becton-Dickinson FACSCalibur. The gating was done based on unstained control cells, Annexin V—PE stained and 7-AAD stained control cells. For fluorescent microscopy, Annexin V staining was performed using Annexin V staining Microscopy kit (BD Biosciences, USA) according to the protocol recommended by the manufacturer. In brief, cells grown in chambered slides were treated with either 3BrPA or the vehicle, washed once with ice-cold PBS followed by two washes with binding buffer, at the end of the treatment period. Cells were then incubated with the FITC-conjugated Annexin V fluorescent antibody for 15 min followed by a gentle wash. The cells were kept in binding buffer and images were observed captured using a Zeiss Axiovert 200 Microscope (Carl Zeiss Microimaging Inc., USA). Active caspase-3, an apoptotic marker, was identified by western blot analysis. Lysates prepared from equal numbers of cells treated with different concentrations of 3BrPA were subjected to SDS-PAGE electrophoresis and immunoblotting against active (cleaved) caspase-3.
In order to confirm that the cytotoxic effects of 3BrPA involves cellular apoptotic pathways, Annexin V levels and Caspase-3 activation was examined in cells treated with 3-BrPA. […] Additionally, immunoblotting of cell lysates with activated-Caspase-3 specific antibodies confirmed the activation of caspase-3 during 3BrPA mediated cell death (FIG. 8).

[2] = MTD of 3-BrPA buffered with 2.75 ml of NaHCO3
[3] = MTD of 3-BrPA buffered with NaHCO3

## O=C(O)C(=O)CBr [3-BrPA, 3-bromopyruvate]
VX2 tumor; 5 mg of 3-BrPA in 2.75 ml of PBS orally once a day
  Median survival: 66 days
VX2 tumor; 10 mg of 3-BrPA in 2.75 ml of PBS orally once a day
  Survival: 70 days
VX2 tumor; 50 mg of 3-BrPA in 2.75 ml of NaHCO3 (1M) orally once a day
  Median survival: 60 days
VX2 tumor; 50 mg of 3-BrPA in 2.75 ml of PBS orally
  Time to death after first oral dose (all animals expired): ≤ 24 h
VX2 tumor; 500 mg in 2.75 ml of NaHCO3 (1 M, resulting in pH 4), orally once a day, compared to groups 2, 3 and 4
  Animal survival, Kaplan Meier analysis: significant survival benefit
VX2 tumor; 500 mg of 3-BrPA in 2.75 ml of NaHCO3 orally once a day
  Median survival time: 100 days
VX2 tumor; 500 mg, unbuffered, pH<2, oral
  Outcome of unbuffered 3-BrPA: immediate death
VX2 tumor; 1000 mg of 3-BrPA in 2.75 ml of NaHCO3 orally
  Time to death (all animals expired): ≤ 24 h
VX2 tumor; [2]
  Survival longer than rabbits that did not receive 3-BrPA: 79%
  Survival longer than rabbits treated with the MTD of 3-BrPA buffered with PBS: 42%
VX2 tumor; [3]
  Cause of death: died of aspiration
  Mean liver tumor size: < 0.5 cm
  Metastases on pathology: no metastases
VX2 tumor; all other groups
  Mean liver tumor size: > 8 cm
VX2 tumor; all other rabbits
  Metastases on pathology: widespread metastases
VX2 tumor; buffered with 2.75 ml of 1M NaHCO3
  Increase of MTD compared to the MTD of 3-BrPA in PBS: 50 fold
VX2 tumor; buffered with 2.75 ml of 1M NaHCO3, oral
  Maximum tolerated dose (MTD): 500 mg
VX2 tumor; buffering conditions that resulted in a pH>6 (500 mg in 2 M NaHCO3, pH 7)
  Effectiveness as a cancer therapeutic: less effective
VX2 tumor; dissolved in 2.75 ml of PBS, oral
  Maximum tolerated dose (MTD): 10 mg
[1]; Annexin V-PE and 7-AAD staining, 100 and 200 μM
  Annexin V positive cells (flow cytometry): dose dependent increase
[1]; all cell lines, after 2 hours of treatment, 200 μM
  Number of apoptotic cells compared with control: significant increase
[1]; treated vs control
  Annexin V staining (photomicrographs): elevated levels of Annexin V
